# Results taken from patent publication US6492397B1, “N-arylheteroarylalkyl imidazol-2-one compounds for treatment of arteriosclerosis” (Pharmacia Corporation, priority 1991, dated 2002).
# Read-outs that look alike come from different tables or passages of the source.
# Key:
# rabbit aortic rings = experiment: Assay B: In Vitro Vascular Smooth Muscle Response for AII (antagonist activity in rabbit aortic rings); assay type: cell-based; details: Oryctolagus cuniculus, test antagonist at 10^-5 M, AII contraction, read-out: Assay B pA2 (converted)
# Procedure: Assay B: In Vitro Vascular Smooth Muscle-Response for AII
# The compounds of the invention were tested for antagonist activity in rabbit aortic rings. Male New Zealand white rabbits (2-2.5 kg) were sacrificed using an overdose of pentobarbital and exsanguinated via the carotid arteries. The thoracic aorta was removed, cleaned of adherent fat and connective tissue and then cut into 3-mm ring segments. The endothelium was removed from the rings by gently sliding a rolled-up piece of filter paper into the vessel lumen. The rings were then mounted in a water-jacketed tissue bath, maintained at 37° C., between moveable and fixed ends of a stainless steel wire with the moveable end attached to an FT03 Grass transducer coupled to a Model 7D Grass Polygraph for recording isometric force responses. The bath was filled with 20 ml of oxygenated (95% oxygen/5% carbon dioxide) Krebs solution of the following composition (mM): 130 NaCl, 15 NaHCO3, […], 1.2 NaH2PO4, 1.2 MgSO4, 2.5 CaCl2, and 11.4 glucose. The preparations were equilibrated for one hour before approximately one gram of passive tension was placed on the rings. Angiotensin II concentration-response curves were then recorded (3×10^−10 to 1×10^−5 M). Each concentration of AII was allowed to elicit its maximal contraction, and then AII was washed out repeatedly for 30 minutes before rechallenging with a higher concentration of AII. Aorta rings were exposed to the test antagonist at 10^−5 M for 5 minutes before challenging with AII. Adjacent segments of the same aorta ring were used for all concentration-response curves in the presence or absence of the test antagonist. The effectiveness of the test compound was expressed in terms of pA2 values and were calculated according to H. O. Schild [Br. J. Pharmacol. Chemother., 2,189-206 (1947)]. The PA2 value is the concentration of the antagonist which increases the EC50 value for AII by a factor of two. Each test antagonist was evaluated in aorta rings from two rabbits.
# [1] = biological target: smooth muscle angiotensin II receptor; experiment: Assay A: Angiotensin II Binding Activity (125I-angiotensin II displacement, rat uterine membrane preparation); details: 50% displacement of specifically bound 125I-AII, rat uterine membranes, 25° C., 60 min
# Procedure: Assay A: Angiotensin II Binding Activity
# Compounds of the invention were tested for ability to bind to the smooth muscle angiotensin II receptor using a rat uterine membrane preparation. […] Other chemicals were obtained from Sigma Chemical Co. This assay was carried out according to the method of Douglas et al [Endocrinology, 106, 120-124 (1980)]. Rat uterine membranes were prepared from fresh tissue. All procedures were carried out at 4° C. Uteri were stripped of fat and homogenized in phosphate-buffered saline at pH 7.4 containing 5 mM EDTA. The homogenate was centrifuged at 1500×g for 20 min., and the supernatant was recentrifuged at 100,000×g for 60 min. The pellet was resuspended in buffer consisting of 2 mM EDTA and 50 mM Tris-HCl (pH 7.5) to a final protein concentration of 4 mg/ml. Assay tubes were charged with 0.25 ml of a solution containing 5 mM MgCl2, 2 mM EDTA, 0.5% bovine serum albumin, 50 mM Tris-HCl, pH 7.5 and […] (approximately 10^5 cpm) in the absence or in the presence of unlabelled ligand. The reaction was initiated by the addition of membrane protein and the mixture was incubated at 25° C. for 60 min. The incubation was terminated with ice-cold 50 mM Tris-HCl (pH 7.5) and the mixture was filtered to separate membrane-bound labelled peptide from the free ligand. The incubation tube and filter were washed with ice-cold buffer. Filters were assayed for radioactivity in a Micromedic gamma counter. Nonspecific binding was defined as binding in the presence of 10 μM of unlabelled AII. Specific binding was calculated as total binding minus nonspecific binding. […] Binding data were analyzed by a nonlinear least-squares curve fitting program.
# pressor response to AII = experiment: Assay C: In Vivo Intragastric Pressor Assay Response for AII Antagonists; design: species or system rat; details: for Assay C Duration: Dose: 3 mg/kg (i.g.), Sprague-Dawley rats, AII challenges up to 180 minutes after gavage; for inhibition in vivo at 3 mg/kg: Rattus norvegicus, po
# Procedure: Assay C: In Vivo Intragastric Pressor Assay Response for AII Antagonists
# Male Sprague-Dawley rats weighing 225-300 grams were anesthetized with methohexital (30 mg/kg, i.p.) and catheters were implanted into the femoral artery and vein. The catheters were tunneled subcutaneously to exit dorsally, posterior to the head and between the scapulae. The catheters were filled with heparin (1000 units/ml of saline). The rats were returned to their cage and allowed regular rat chow and water ad libitum. After full recovery from surgery (3-4 days), rats were placed in Lucite holders and the arterial line was connected to a pressure transducer. Arterial pressure was recorded on a Gould polygraph (mmHg). Angiotensin II was administered as a 30 ng/kg bolus via the venous catheter delivered in a 50 μl volume with a 0.2 ml saline flush. The pressor response in mm Hg was measured by the difference from pre-injection arterial pressure to the maximum pressure achieved. The AII injection was repeated every 10 minutes until three consecutive injections yielded responses within 4 mmHg of each other. These three responses were then averaged and represented the control response to AII. The test compound was suspended in 0.5% methylcellulose in water and was administered by gavage. The volume administered was 2 ml/kg body weight. The standard dose was 3 mg/kg. Angiotensin II bolus injections were given at 30, 45, 60, 75, 120, 150, and 180 minutes after gavage. The pressor response to AII was measured at each time point. The rats were then returned to their cage for future testing. A minimum of 3 days was allowed between tests. Percent inhibition was calculated for each time point following gavage by the following formula: [(Control Response−Response at time point)/Control Response]×100.
# [2] = first value of the pair (aorta rings from two rabbits)
# [3] = second value of the pair (aorta rings from two rabbits)
melting point,IC50 [1] [nM],SMILES,Kb (rabbit aortic rings; [2]) [nM],Kb (rabbit aortic rings; [3]) [nM],Assay C Duration (pressor response to AII) [min],inhibition in vivo at 3 mg/kg (pressor response to AII) [%]
170 to 171 °C,6.5,"CCCCc1cn(CCCC)c(=O)n1Cc1ccc(-c2ccccc2-c2nnn[nH]2)nc1 [Example 1, 1,4-dibutyl-1,3-dihydro-3-[[6-[2-(1H-tetrazol-5-yl)phenyl]-3-pyridinyl]methyl]-2H-imidazol-2-one]",1.51,2.95,>180,50
176 to 177 °C,10,"CCCCCc1cn(CCCC)c(=O)n1Cc1ccc(-c2ccccc2-c2nnn[nH]2)nc1 [Example 6, 1-butyl-4-yl-1,3-dihydro-3-[[6-[2-(1H-tetrazol-5-yl)phenyl]-3-pyridinyl]methyl]-2H-imidazol-2-one]",13.5,12.9,180,10
195 to 196 °C (dec.),140,"CCCCn1cc(C2CCCC2)n(Cc2ccc(-c3ccccc3-c3nnn[nH]3)nc2)c1=O [Example 8, 1-butyl-4-cyclopentyl-1,3-dihydro-3-[[6-[2-(1H-tetrazol-5-yl)phenyl]-3-pyridinyl]methyl]-2H-imidazol-2-one]",,,,
184 to 185 °C (dec.),47,"CCCCc1cn(C)c(=O)n1Cc1ccc(-c2ccccc2-c2nnn[nH]2)nc1 [Example 10, 1-methyl-4-butyl-1,3-dihydro-3-[[6-[2-(1H-tetrazol-5-yl)phenyl]-3-pyridinyl]methyl]-2H-imidazol-2-one]",22.9,44.7,,
205 °C (dec.),34,"CCCCc1cn(CC)c(=O)n1Cc1ccc(-c2ccccc2-c2nnn[nH]2)nc1 [Example 11, 1-ethyl-4-butyl-1,3-dihydro-3-[[6-[2-(1H-tetrazol-5-yl)phenyl]-3-pyridinyl]methyl]-2H-imidazol-2-one]",3.63,9.33,,
164 to 165 °C,31,"CCCCc1cn(CCC)c(=O)n1Cc1ccc(-c2ccccc2-c2nnn[nH]2)nc1 [Example 12, 1-propyl-4-butyl-1,3-dihydro-3-[[6-[2-(1H-tetrazol-5-yl)phenyl]-3-pyridinyl]methyl]-2H-imidazol-2-one]",20.9,5.5,,
160 to 161.5 °C,14,"CCCCc1cn(CC(C)C)c(=O)n1Cc1ccc(-c2ccccc2-c2nnn[nH]2)nc1 [Example 13, 1-isobutyl-4-butyl-1,3-dihydro-3-[[6-[2-(1H-tetrazol-5-yl)phenyl]-3-pyridinyl]methyl]-2H-imidazol-2-one]",9.33,2.51,,
168.5 to 170 °C,7.6,"CCCCc1cn(CCC(C)C)c(=O)n1Cc1ccc(-c2ccccc2-c2nnn[nH]2)nc1 [Example 14, 1-isopentyl-4-butyl-1,3-dihydro-3-[[6-[2-(1H-tetrazol-5-yl)phenyl]-3-pyridinyl]methyl]-2H-imidazol-2-one]",1.74,2.29,>180,35
,18,"CCCCc1cn(CCC2CCCC2)c(=O)n1Cc1ccc(-c2ccccc2-c2nnn[nH]2)nc1 [Example 27, 1-(2-cyclopentylethyl)-4-butyl-1,3-dihydro-3-[[6-[2-(1H-tetrazol-5-yl)phenyl]-3-pyridinyl]methyl]-2H-imidazol-2-one]",1.82,2.14,>180,35
,23,"CCCCc1cn(CCC2=CCCC2)c(=O)n1Cc1ccc(-c2ccccc2-c2nnn[nH]2)nc1 [Example 28, 1-[2-(cyclopenten-1-yl)ethyl]-4-butyl-1,3-dihydro-3-[[6-[2-(1H-tetrazol-5-yl)phenyl]-3-pyridinyl]methyl]-2H-imidazol-2-one]",1.41,5.62,180,15
164.5 to 165.5 °C (dec.),7,"CCCCc1cn(-c2c(F)cccc2F)c(=O)n1Cc1ccc(-c2ccccc2-c2nnn[nH]2)nc1 [Example 36, 1-(2,6-difluorophenyl)-4-butyl-1,3-dihydro-3-[[6-[2-(1H-tetrazol-5-yl)phenyl]-3-pyridinyl]methyl]-2H-imidazol-2-one]",,,120,75
212 to 212.5 °C,4.8,"CCCCc1cn(-c2c(Cl)cccc2Cl)c(=O)n1Cc1ccc(-c2ccccc2-c2nnn[nH]2)nc1 [Example 37, 1-(2,6-dichlorophenyl)-4-butyl-1,3-dihydro-3-[[6-[2-(1H-tetrazol-5-yl)phenyl]-3-pyridinyl]methyl]-2H-imidazol-2-one]",,,>180,25
178 to 179.5 °C,91,"CCCCc1cn(CCCC)c(=O)n1Cc1ccc(-c2ncccc2-c2nnn[nH]2)cc1 [Example 40, 1,4-dibutyl-1,3-dihydro-3-[[4-[3-(1H-tetrazol-5-yl)-2-pyridinyl]phenyl]methyl]-2H-imidazol-2-one]",,,,
128 to 130 °C,160,"CCCCc1cn(CCCC)c(=O)n1Cc1ccc(-c2cnccc2-c2nnn[nH]2)cc1 [Example 41, 1,4-dibutyl-1,3-dihydro-3-[[4-[4-(1H-tetrazol-5-yl)-3-pyridinyl]phenyl]methyl]-2H-imidazol-2-one]",,,,
176 to 178 °C (dec.),93,"CCCCc1cn(CCCC)c(=O)n1Cc1ccc(-c2ccncc2-c2nnn[nH]2)cc1 [Example 42, 1,4-dibutyl-1,3-dihydro-3-[[4-[3-(1H-tetrazol-5-yl)-4-pyridinyl]phenyl]methyl]-2H-imidazol-2-one]",,,,
178 to 179.5 °C,89,"CCCCc1cn(CCCC)c(=O)n1Cc1ccc(-c2cccnc2-c2nnn[nH]2)cc1 [Example 43, 1,4-dibutyl-1,3-dihydro-3-[[4-[2-(1H-tetrazol-5-yl)-3-pyridinyl]phenyl]methyl]-2H-imidazol-2-one]",28.2,21.4,,
